ChEMBL document CHEMBL2157893, “A potent and orally active antagonist (SM-406/AT-406) of multiple inhibitor of apoptosis proteins (IAPs) in clinical development for cancer treatment” (J Med Chem, 2011)

Columns and labels:
[1] = molecular target: Baculoviral IAP repeat-containing protein 2 (Homo sapiens, UniProt Q13490)
in vivo [2] = settings: SCID, mouse, tumor, po, 30 mg/kg
Plasma [3] = assay: Half life in human MDA-MB-231 cells xenografted SCID mouse plasma at 10 mg/kg, po administered as single dose; assay type: ADME, organism-based; set-up: dose 10 mg/kg, route oral; settings: in vivo
[4] = Tmax in human MDA-MB-231 cells xenografted SCID mouse tumor at 10 mg/kg, iv administered as single dose; assay type: ADME, organism-based, Neoplasm; set-up: dose 10 mg/kg, route intravenous
[5] = Inhibition of Cytochrome P450; assay type: ADME
[6] = Tmax in human MDA-MB-231 cells xenografted SCID mouse plasma at 30 mg/kg, po administered as single dose; assay type: ADME, organism-based; set-up: dose 30 mg/kg, route oral
[7] = Aqueous solubility of the compound; assay type: physicochemical; settings: buffer
Plasma [8] = assay: Half life in human MDA-MB-231 cells xenografted SCID mouse plasma at 30 mg/kg, po administered as single dose; assay type: ADME, organism-based; set-up: dose 30 mg/kg, route oral; settings: in vivo
[9] = Toxicity in human prostate epithelial cells assessed as induction of cell death at 10 uM after 48 hrs by trypan blue exclusion assay; assay type: cell-based
in vivo [10] = settings: SCID, mouse, tumor, po, 100 mg/kg
Plasma [11] = assay: AUC (0 to t) in human MDA-MB-231 cells xenografted SCID mouse plasma at 10 mg/kg, po administered as single dose; assay type: ADME, organism-based; set-up: dose 10 mg/kg, route oral; settings: in vivo
[12] = Tmax in human MDA-MB-231 cells xenografted SCID mouse tumor at 30 mg/kg, po administered as single dose; assay type: ADME, organism-based, Neoplasm; set-up: dose 30 mg/kg, route oral
[13] = molecular target: Baculoviral IAP repeat-containing protein 3 (Homo sapiens, UniProt Q13489); assay: Competitive inhibition of human cIAP2 BIR3 domain expressed in Escherichia coli BL21(DE3) after 2 to 3 hrs by fluorescence polarization assay
Mus musculus [14] = assay: Toxicity in human MDA-MB-231 cells xenografted in SCID mouse at 200 mg/kg, po administered daily for 5 days/week for 2 to 3 weeks; settings: in vivo
MDA-MB-231 = assay: cells; settings: Homo sapiens, MDA-MB-231, 96 h
[15] = Toxicity in human MCF12F cells assessed as induction of cell death at 10 uM after 48 hrs by trypan blue exclusion assay; assay type: cell-based
Plasma [16] = assay: Half life in human MDA-MB-231 cells xenografted SCID mouse plasma at 100 mg/kg, po administered as single dose; assay type: ADME, organism-based; set-up: dose 100 mg/kg, route oral; settings: in vivo
Plasma [17] = assay: AUC (0 to t) in human MDA-MB-231 cells xenografted SCID mouse plasma at 10 mg/kg, iv administered as single dose; assay type: ADME, organism-based; set-up: dose 10 mg/kg, route intravenous; settings: in vivo
Canis familiaris [18] = organism: Canis familiaris; assay: Toxicity in dog assessed as drug tolerability; assay type: organism-based, Canis lupus familiaris; settings: in vivo
[19] = AUC (0 to t) in human MDA-MB-231 cells xenografted SCID mouse tumor at 100 mg/kg, po administered as single dose; assay type: ADME, organism-based, Neoplasm; set-up: dose 100 mg/kg, route oral
Plasma [20] = assay: AUC (0 to t) in human MDA-MB-231 cells xenografted SCID mouse plasma at 100 mg/kg, po administered as single dose; assay type: ADME, organism-based; set-up: dose 100 mg/kg, route oral; settings: in vivo
Plasma [21] = assay: Oral bioavailability in human MDA-MB-231 cells xenografted SCID mouse plasma at 100 mg/kg administered as single dose; assay type: ADME, organism-based; settings: in vivo
Plasma [22] = assay: Oral bioavailability in human MDA-MB-231 cells xenografted SCID mouse plasma at 10 mg/kg administered as single dose; assay type: ADME, organism-based; settings: in vivo
[23] = Tmax in human MDA-MB-231 cells xenografted SCID mouse tumor at 10 mg/kg, po administered as single dose; assay type: ADME, organism-based, Neoplasm; set-up: dose 10 mg/kg, route oral
SK-OV-3 = assay: cells; settings: Homo sapiens, SK-OV-3, 96 h
[24] = AUC (0 to t) in human MDA-MB-231 cells xenografted SCID mouse tumor at 10 mg/kg, po administered as single dose; assay type: ADME, organism-based, Neoplasm; set-up: dose 10 mg/kg, route oral
[25] = molecular target: E3 ubiquitin-protein ligase XIAP (Homo sapiens, UniProt P98170); assay: Competitive inhibition of human XIAP BIR3 domain expressed in Escherichia coli BL21(DE3) after 2 to 3 hrs by fluorescence polarization assay
Plasma [26] = assay: Oral bioavailability in human MDA-MB-231 cells xenografted SCID mouse plasma at 30 mg/kg administered as single dose; assay type: ADME, organism-based; settings: in vivo
Plasma [27] = assay: AUC (0 to t) in human MDA-MB-231 cells xenografted SCID mouse plasma at 30 mg/kg, po administered as single dose; assay type: ADME, organism-based; set-up: dose 30 mg/kg, route oral; settings: in vivo
Plasma [28] = assay: Half life in human MDA-MB-231 cells xenografted SCID mouse plasma at 10 mg/kg, iv administered as single dose; assay type: ADME, organism-based; set-up: dose 10 mg/kg, route intravenous; settings: in vivo
[29] = AUC (0 to t) in human MDA-MB-231 cells xenografted SCID mouse tumor at 30 mg/kg, po administered as single dose; assay type: ADME, organism-based, Neoplasm; set-up: dose 30 mg/kg, route oral
in vivo [30] = settings: SCID, mouse, tumor, po, 10 mg/kg
[31] = AUC (0 to t) in human MDA-MB-231 cells xenografted SCID mouse tumor at 10 mg/kg, iv administered as single dose; assay type: ADME, organism-based, Neoplasm; set-up: dose 10 mg/kg, route intravenous
in vivo [32] = settings: SCID, mouse, tumor, iv, 10 mg/kg
[33] = Tmax in human MDA-MB-231 cells xenografted SCID mouse tumor at 100 mg/kg, po administered as single dose; assay type: ADME, organism-based, Neoplasm; set-up: dose 100 mg/kg, route oral
[34] = Tmax in human MDA-MB-231 cells xenografted SCID mouse plasma at 10 mg/kg, po administered as single dose; assay type: ADME, organism-based; set-up: dose 10 mg/kg, route oral
Cynomolgus monkey [35] = assay: Oral bioavailability in cynomolgus monkey at 5 mg/kg; assay type: ADME, organism-based, Macaca fascicularis; settings: in vivo
Mus musculus [36] = assay: Oral bioavailability in mouse at 30 mg/kg; assay type: ADME, organism-based; settings: in vivo
Cynomolgus monkey [37] = assay: Half life in cynomolgus monkey at 5 mg/kg, po; assay type: ADME, organism-based, Macaca fascicularis; set-up: dose 5 mg/kg, route oral; settings: in vivo
Canis familiaris [38] = assay: Half life in beagle dog at 10 mg/kg, po; assay type: ADME, organism-based, Canis lupus familiaris; set-up: dose 10 mg/kg, route oral; settings: in vivo
Rattus norvegicus [39] = assay: AUC (0 to t) in Sprague-Dawley rat at 25 mg/kg, po; assay type: ADME, organism-based, Plasma; set-up: dose 25 mg/kg, route oral; settings: in vivo
Mus musculus [40] = assay: AUC (0 to t) in mouse at 10 mg/kg, iv; assay type: ADME, organism-based, Plasma; set-up: dose 10 mg/kg, route intravenous; settings: in vivo
Canis familiaris [41] = assay: AUC (0 to t) in beagle dog at 5 mg/kg, iv; assay type: ADME, organism-based, Canis lupus familiaris, Plasma; set-up: dose 5 mg/kg, route intravenous; settings: in vivo
Canis familiaris [42] = assay: Oral bioavailability in beagle dog at 10 mg/kg; assay type: ADME, organism-based, Canis lupus familiaris; settings: in vivo
Mus musculus [43] = assay: AUC (0 to t) in mouse at 30 mg/kg, po; assay type: ADME, organism-based, Plasma; set-up: dose 30 mg/kg, route oral; settings: in vivo
Canis familiaris [44] = assay: AUC (0 to t) in beagle dog at 10 mg/kg, po; assay type: ADME, organism-based, Canis lupus familiaris, Plasma; set-up: dose 10 mg/kg, route oral; settings: in vivo
Mus musculus [45] = assay: Half life in mouse at 10 mg/kg, iv; assay type: ADME, organism-based; set-up: dose 10 mg/kg, route intravenous; settings: in vivo
Canis familiaris [46] = assay: Half life in beagle dog at 5 mg/kg, iv; assay type: ADME, organism-based, Canis lupus familiaris; set-up: dose 5 mg/kg, route intravenous; settings: in vivo
Mus musculus [47] = assay: Half life in mouse at 30 mg/kg, po; assay type: ADME, organism-based; set-up: dose 30 mg/kg, route oral; settings: in vivo
Rattus norvegicus [48] = assay: Half life in Sprague-Dawley rat at 5 mg/kg, iv; assay type: ADME, organism-based; set-up: dose 5 mg/kg, route intravenous; settings: in vivo
Cynomolgus monkey [49] = assay: AUC (0 to t) in cynomolgus monkey at 2.5 mg/kg, iv; assay type: ADME, organism-based, Macaca fascicularis, Plasma; set-up: dose 2.5 mg/kg, route intravenous; settings: in vivo
Rattus norvegicus [50] = assay: Oral bioavailability in Sprague-Dawley rat at 25 mg/kg; assay type: ADME, organism-based; settings: in vivo
Cynomolgus monkey [51] = assay: AUC (0 to t) in cynomolgus monkey at 5 mg/kg, po; assay type: ADME, organism-based, Macaca fascicularis, Plasma; set-up: dose 5 mg/kg, route oral; settings: in vivo
Rattus norvegicus [52] = assay: Half life in Sprague-Dawley rat at 25 mg/kg, po; assay type: ADME, organism-based; set-up: dose 25 mg/kg, route oral; settings: in vivo
Cynomolgus monkey [53] = assay: Half life in cynomolgus monkey at 2.5 mg/kg, iv; assay type: ADME, organism-based, Macaca fascicularis; set-up: dose 2.5 mg/kg, route intravenous; settings: in vivo

SMILES: CN[C@@H](C)C(=O)N[C@H]1CN(C(=O)CC(C)C)CC[C@H]2CC[C@@H](C(=O)N[C@@H](c3ccccc3)c3cn(CCCCCCCCCCNC(=O)CCCCCNC(=O)CCCC[C@@H]4SC[C@@H]5NC(=O)N[C@@H]54)nn3)N2C1=O
- Ki [1]: < 1 nM

SMILES: CN[C@@H](C)C(=O)N[C@H]1CN(C(=O)CC(C)C)CC[C@H]2CC[C@@H](C(=O)NC(c3ccccc3)c3ccccc3)N2C1=O [XEVINAPANT]
- Cmax (in vivo [2]): 2400 ng/mL
- t1/2 (Plasma [3]): 2.4 h
- Tmax [4]: 0.25 h
- inhibition (INH) [5]: Not Active
- Tmax [6]: 2 h
- solubility [7]: > 50 mg/mL
- t1/2 (Plasma [8]): 2.3 h
- Activity [9]: Non-toxic
- Cmax (in vivo [10]): 10800 ng/mL
- AUCt (Plasma [11]): 1200 ng·h/mL
- Tmax [12]: 2 h
- IC50 [13]: 22.1 nM
- Ki [13]: 5.1 nM
- Activity (Mus musculus [14]): Non-toxic
- IC50 (MDA-MB-231): 144 nM
- Activity [15]: Non-toxic
- t1/2 (Plasma [16]): 5.4 h
- AUCt (Plasma [17]): 3800 ng·h/mL
- Activity (Canis familiaris [18]): Non-toxic
- AUC(0-t) [19]: 57300 ng·h/mL
- AUCt (Plasma [20]): 17400 ng·h/mL
- F (Plasma [21]): 46%
- F (Plasma [22]): 31%
- Tmax [23]: 1 h
- IC50 (SK-OV-3): 142 nM
- AUC(0-t) [24]: 1100 ng·h/mL
- IC50 [25]: 225 nM
- Ki [25]: 66.4 nM
- F (Plasma [26]): 38%
- AUCt (Plasma [27]): 4300 ng·h/mL
- t1/2 (Plasma [28]): 3 h
- AUC(0-t) [29]: 9600 ng·h/mL
- Cmax (in vivo [30]): 260 ng/mL
- AUC(0-t) [31]: 8300 ng·h/mL
- Cmax (in vivo [32]): 3600 ng/mL
- Tmax [33]: 2 h
- Tmax [34]: 1 h

SMILES: CN[C@@H](C)C(=O)N[C@H]1CN(C(=O)CC(C)C)CC[C@H]2CC[C@@H](C(=O)NC(c3ccccc3)c3ccccc3)N2C1=O.Cl
- F (Cynomolgus monkey [35]): 42%
- F (Mus musculus [36]): 38%
- t1/2 (Cynomolgus monkey [37]): 5.4 h
- t1/2 (Canis familiaris [38]): 27.1 h
- AUCt (Rattus norvegicus [39]): 2300 ng·h/mL
- AUCt (Mus musculus [40]): 3800 ng·h/mL
- AUCt (Canis familiaris [41]): 81600 ng·h/mL
- F (Canis familiaris [42]): 55%
- AUCt (Mus musculus [43]): 4300 ng·h/mL
- AUCt (Canis familiaris [44]): 90300 ng·h/mL
- t1/2 (Mus musculus [45]): 3 h
- t1/2 (Canis familiaris [46]): 16.3 h
- t1/2 (Mus musculus [47]): 2.3 h
- t1/2 (Rattus norvegicus [48]): 1.4 h
- AUCt (Cynomolgus monkey [49]): 17900 ng·h/mL
- F (Rattus norvegicus [50]): 45%
- AUCt (Cynomolgus monkey [51]): 13500 ng·h/mL
- t1/2 (Rattus norvegicus [52]): 1.8 h
- t1/2 (Cynomolgus monkey [53]): 6.3 h
